Measured values reported in patent US20240148757A1, “USE OF DIHYDROOROTATE DEHYDROGENASE (DHODH) INHIBITORS TO TARGET FERROPTOSIS IN CANCER THERAPY” (BOARD OF REGENTS, THE UNIVERSITY OF TEXAS SYSTEM, priority 2021, published 2024).

Test system: HT-1080 cells
Assay: Metabolic tracer analysis of pyrimidine synthesis (amide-15N-glutamine)
Format: cell-based, human
Conditions: Lip-1 10 μM
Description: Metabolomic analysis was performed as previously described (Liu, X., et al., Nat Cell Biol 22, 476-486 (2020)). Cells were seeded on 35 mm culture plates at a density sufficient to ensure approximately 70-80% confluence at the time of extraction. For metabolic tracer analysis of pyrimidine synthesis, HT-1080 cells were treated with RSL3 and/or Lip-1 for 2 hours and then were shifted to drug-free media containing amide-^15N-glutamine (this time point is defined as 0 hour). Metabolites were extracted at the indicated time points for subsequent analyses. Metabolites were extracted by rapidly aspirating the culture medium and then adding 0.6 mL of an 80% methanol: 20% water mixture at dry ice temperature. The plates were incubated on dry ice for 15 minutes before the cell material was scraped into eppendorf tubes pre-chilled on ice. The cell debris was pelleted by centrifugation at 13,000 RCF for 5 minutes at 4° C. and the supernatant was transferred to a fresh tube and stored on dry ice until analysis. […]
The complete platform consists of an Accela 1250 HPLC system, Accela Open Autosampler, MayLab Mistraswitch column oven and Exactive orbitrap mass spectrometer, controlled by the Xcalibur 3.0.63 software package. […] The data were analyzed using the MAVEN software suite57 with signal intensity determined as the Peak Area (Top). […]

Clc1cccc(CN=C2Nc3ccccc3NC23CCNCC3)c1 [liproxstatin-1]
rescue of RSL3-induced increase of 15N-UMP levels: completely rescued
